Reference: patent US11986512B2, “Compositions and methods for cancer therapy” (Thetis Pharmaceuticals LLC, priority 2021, dated 2024)

Experiments:
Type in all cases: in vivo, C57BL/6J male mice
Panc2-H7 cells [1] = assay: Panc2-H7 model of pancreatic cancer, with and without anti-PD1
Description: (§1) A representative compound of Formula IV, RvE1 magnesium dilysinate, was tested for efficacy in several mouse models of cancer, including the Panc2-H7 model of pancreatic cancer, the Lewis lung carcinoma (LLC) model, the MC38 model of colorectal cancer, and the B16F10 model of melanoma. These models are well established, highly tumorigenic syngeneic models in which murine cancer cell lines are injected subcutaneously (SC) into the dorsum of C57BL/6J mice. If left untreated, these tumors grow rapidly and lead to death or euthanasia, per protocol. As detailed below in Examples 1-9 and the accompanying figures, bis RvE1 Mg-di-lysinate (Compound 1) was unexpectedly effective as an anti-cancer agent in each of these model systems when administered in a less than daily (LTD) dosing regimen. […] Without being bound by any theory, the surprising efficacy of LTD dosing of resolvins in the cancer model systems described here may be the result of durable effects on the tumor microenvironment including changes in immune cell phenotype, vascularization, stromal phenotype, and antigen presentation, as well as durable effects on the T-cell compartment such as T-cell priming and increased tumor-infiltrating lymphocytes.
Over the last two decades, research on checkpoint inhibitors, including anti-PD(L)1 and anti-CTLA4, has focused on T-cells as a major therapeutic target. Waldman et al., Nat Rev Immunol. 2020; 20(11):651-668. In general, the response to treatment with immune checkpoint inhibitors requires the presence of CD4+ and CD8+ T cells in the tumor microenvironment. Li et al., Biochim Biophys Acta Rev Cancer. 2020; 1874(2):188439. […] Chiurchiu et al., Sci. Transl. Med. 2016; 8:353ra111; Mizraji et al., Front Immunol. 2018; 9:785; Oner et al., Front Immunol. 2021; 12:637983. In addition, resolvins can enhance the de novo generation and function of immunosuppressive T regulatory cells, which are associated with cancer progression and resistance to immune checkpoint inhibitors. Alvarez et al., Front Immunol. 2021; 12:664756; Togashi et al., Nat Rev Clin Oncol 2019; 16, 356-371. […]

Panc2-H7 cells [2] = assay: Panc2-H7 model, daily (QD) versus weekly (Q7D) dosing; conditions: SC
Description: as §1
Based on the previous findings in the MC38 colorectal cancer model with less than daily (LTD) dosing, a study in the Panc2-H7 model was conducted to assess the efficacy of LTD dosing of bis RvE1 Mg-di-lysinate in a different tumor model. A total of forty (40) C57BL/6J male mice were injected subcutaneously with 1×10e6 living Panc2-H7 cells. Once tumors reached 160-320 mm^3 in size, the mice were randomized (n=8 per group) to treatment with vehicle or SC injection with bis RvE1 Mg-di-lysinate at 30 ug/kg and 300 ug/kg (QD, Q7D).

Panc2-H7 model = Panc2-H7 model with or without CD8 neutralizing antibody
Description: Based on the findings with bis RvE1 Mg-di-lysinate administered in combination with anti-PD1 in two different tumor models (i.e., Panc2-H7 and LLC), daily (QD) and weekly (Q7D) dosing of bis RvE1 Mg-di-lysinate was investigated in the Panc2-H7 model, with and without an antibody that depletes CD8+ T-cells, which play a major role in the antitumor immune response of immune checkpoint inhibitors. A total of thirty (30) C57BL/6J male mice were injected subcutaneously with 1×10e6 living […]. Once tumors reached 220-240 mm^3 in size based on mean tumor volume per cohort, the mice were randomized (n=6 per group) to treatment with vehicle, bis RvE1 Mg-di-lysinate (300 ug/kg, SC, QD or Q7D), with or without CD8 neutralizing antibody (200 ug IP Q3D). All mice were sacrificed on day 20 when the average tumor size of the placebo group exceeded 2,000 mm^3.

Panc2 cells = assay: Panc2-H7 model with or without anti-CTLA4
Description: To further corroborate the findings with weekly dosing of bis RvE1 Mg-di-lysinate and its efficacy in combination with immune checkpoint inhibitors (ICI), another study was conducted in the Panc2-H7 model with a different ICI. A total of twenty-four (24) C57BL/6J male mice were injected subcutaneously with 1×10e6 living Panc2 cells. Once tumors reached 200 mm^3 in size based on mean tumor volume per cohort, the mice were randomized (n=8 per group) to treatment with vehicle, bis RvE1 Mg-di-lysinate (300 ug/kg, SC, Q7D) and bis RvE1 Mg-di-lysinate+anti-CTLA-4 (4 mg/kg, i.p, first dose; 2 mg/kg i.p, Q3D following the first dose).

LLC cells = assay: Metastatic LLC resection model, perioperative (neo-adjuvant) treatment; conditions: 300 ug/kg, SC, Q6D, first dose 2 hours prior to surgery
Description: To investigate the efficacy of LTD dosing of bis RvE1 Mg-di-lysinate as neo-adjuvant therapy, a study was conducted in the metastatic LLC resection model with treatment initiated in the perioperative window. A total of fifteen (15) C57BL/6J male mice were injected subcutaneously with 1×10e6 living LLC cells. Once tumors reached approximately 1200-1500 mme3 in size, the mice were randomized (n=4-8 per group) to treatment with vehicle (SC, Q6D), bis RvE1 Mg-di-lysinate (300 ug/kg, SC, Q6D), or cisplatin (5 mg/kg, i.p, Q6D), followed by surgical resection of the tumors. The mice in the vehicle and cisplatin groups received an initial dose twenty-four (24) hours prior to surgery, and the mice treated with bis RvE1 Mg-di-lysinate received an initial dose two (2) hours prior to surgery. All mice were sacrificed on day 19 following the death of three mice in the vehicle control group on day 18.

`CC[C@@H](O)/C=C/C=C\C[C@@H](O)/C=C/C=C/C=C\[C@@H](O)CCCC(=O)O` [bis RvE1 Mg-di-lysinate] was tested, and the tumor growth (Panc2-H7 cells [1]; double combination: bis RvE1 Mg-di-lysinate 30 ug/kg SC plus anti-PD1 8 mg/kg IP Q3D, p<0.001 vs placebo and monotherapy groups) was “significantly inhibited tumor growth relative to control”, the “anti-cancer effect (tumor volume, Day 15 vs Day 0)” value (Panc2-H7 cells [1]; monotherapy, 30 ug/kg, subcutaneous injection) was “did not have a significant anti-cancer effect” and the tumor growth (Panc2-H7 cells [1]; triple combination of bis RvE1 Mg-di-lysinate, anti-PD1 and gemcitabine) was “significantly inhibited tumor growth relative to control”. The “tumor volume (Day 20 vs Day 0)” value (Panc2-H7 cells [2]; 30 ug/kg, Q7D) was “inhibition relative to placebo control”, the “tumor volume (Day 20 vs Day 0)” value (Panc2-H7 cells [2]; 30 ug/kg, QD) was “inhibition relative to placebo control” and the “tumor volume (Day 20 vs Day 0)” value (Panc2-H7 cells [2]; 300 ug/kg, Q7D, P<0.05 vs placebo control) was “greatest inhibition”. For the same compound, the “tumor volume (Day 20 vs Day 0)” value (Panc2-H7 cells [2]; 300 ug/kg, QD) was “inhibition relative to placebo control”, the “efficacy of weekly (Q7D) relative to daily (QD) dosing” value (Panc2-H7 model; 300 ug/kg SC, mice not receiving the neutralizing antibody) was “comparable and possibly superior efficacy relative to daily (QD) dosing” and the “tumor volume over time” value (Panc2-H7 model; 300 ug/kg, SC, Q7D, without CD8 neutralizing antibody, p<0.01 vs placebo and vs same regimen + CD8 depletion) was “significant inhibition compared to placebo control”. The “tumor volume over time” value (Panc2 cells; bis RvE1 Mg-di-lysinate 300 ug/kg SC Q7D + anti-CTLA-4 (4 mg/kg i.p first dose, 2 mg/kg i.p Q3D), p<0.001) was “significant inhibition related to both placebo and bis RvE1 Mg-di-lysinate alone”, the “tumor volume over time” value (Panc2 cells; monotherapy, 300 ug/kg, SC, Q7D) was “significant inhibition as monotherapy compared to placebo” and the “number of lung metastases” value (LLC cells; compared to vehicle control and cisplatin, p<0.05) was “significantly reduced the number of lung metastases”. For the same compound, the “number of mice with metastasis in the axillary or inguinal lymph nodes” value (LLC cells; compared to vehicle or cisplatin, p<0.01) was “significantly reduced the number of mice with metastasis in the axillary or inguinal lymph nodes”.
